Tests used:
[1] = molecular target: T1, mouse STING protein (139-328) (Mus musculus, UniProt Q3TBT3); test: Radiometric filtration binding competition assay (MOUSE_FBA_HIS-SUMO-mSWAT); conditions: read-out: WT-mSWAT IC50
T1 construct: mouse STING protein (139-328); made in house
T1 sequence (Q3TBT3 139-328): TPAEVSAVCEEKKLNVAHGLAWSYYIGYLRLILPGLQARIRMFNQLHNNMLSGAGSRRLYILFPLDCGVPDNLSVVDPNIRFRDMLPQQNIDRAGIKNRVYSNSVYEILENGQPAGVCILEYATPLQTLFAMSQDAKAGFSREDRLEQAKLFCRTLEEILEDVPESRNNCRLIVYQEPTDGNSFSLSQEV
Procedure: A radiometric filtration binding competition assay was performed to quantify the binding affinity of compounds of the present application for the human or mouse STING protein, or associated HAQ human isoform. The competition format filtration binding assay detects the ability of small molecule compounds from binding to and inhibiting the subsequent binding of a tritiated [H3] […] The resulting dose response was fit by non-linear regression to determine an IC50 value, from which a Ki value for each compound was extrapolated.
Briefly, the recombinant C-terminal ligand binding domain of the human STING protein (140-379) or mouse STING protein (139-328) [0.5 μM] was incubated in the presence of a compound of the present application (8 point, 2 fold dilution starting at 300 μM) for 30 min or under control conditions. […] The resulting complexes were then filtered, dried, and scintillation fluid was added and the remaining radio signal was measured to determine the degree of compound ligand inhibition. This assay format was optimized for both the WT and HAQ isoforms of the human protein and the mouse orthologue protein.
Parameters optimized: • a. Form of protein: 6×HIS-SUMO tag or untagged • b. Concentration of target protein: Minimum concentration that achieved >80 max signal • c. Assay DMSO concentration: 10%-0.1% • d. […]

[2] = molecular target: T2, human STING protein (140-379) (Homo sapiens, UniProt Q86WV6, H232R); test: Radiometric filtration binding competition assay (WT_FBA_HIS-SUMO-hSWAT); conditions: read-out: WT-hSWAT IC50
T2 construct: 6XHIS-SUMO-hSTING (140-379); made in house; host or cells: BL-21(DE3) E. coli, pET vector
T2 sequence (Q86WV6 140-379 H232R): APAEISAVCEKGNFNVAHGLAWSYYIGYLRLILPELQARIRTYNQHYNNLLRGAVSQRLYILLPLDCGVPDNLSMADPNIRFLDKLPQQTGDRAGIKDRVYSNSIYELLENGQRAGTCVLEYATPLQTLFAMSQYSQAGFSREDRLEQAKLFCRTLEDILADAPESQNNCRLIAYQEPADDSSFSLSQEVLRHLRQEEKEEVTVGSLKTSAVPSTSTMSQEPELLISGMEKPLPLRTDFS
Procedure, shortened: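 His-SUMO-tagged STING ligand-binding domain (human 140-379 or mouse 139-328, 0.5 μM) preincubated 30 min with compound (8 points, 2-fold from 300 μM), then competed with a tritiated ligand. Complexes were filtered and counted by scintillation. IC50 from non-linear regression, with Ki extrapolated.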

[3] = molecular target: T3, STING protein (Homo sapiens, UniProt Q86WV6, H232R); test: Cell based reporter assay of IRF activation (THP1-dual-KI R232, IRF luciferase); conditions: THP-1; read-out: THP1-dual-KI R232_IRF(Luciferase)_Activity Maximum measured (%)
T3 construct: host or cells: THP-1 dual reporter cells, TMEM173 modified from HAQ to R232 (THP1-dual-KI R232)
T3 sequence (Q86WV6 whole entry H232R): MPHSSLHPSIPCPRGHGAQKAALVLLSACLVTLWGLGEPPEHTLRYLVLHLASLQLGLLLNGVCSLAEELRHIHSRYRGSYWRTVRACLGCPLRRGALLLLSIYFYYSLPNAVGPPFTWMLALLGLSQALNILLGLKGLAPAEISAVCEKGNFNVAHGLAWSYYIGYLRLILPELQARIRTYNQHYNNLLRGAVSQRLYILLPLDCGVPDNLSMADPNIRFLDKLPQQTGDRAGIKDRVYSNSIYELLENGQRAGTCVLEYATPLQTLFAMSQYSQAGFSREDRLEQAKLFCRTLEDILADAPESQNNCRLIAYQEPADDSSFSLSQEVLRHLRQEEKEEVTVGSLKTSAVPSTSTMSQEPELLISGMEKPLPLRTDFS
Procedure, shortened: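 THP-1 monocytes stably carried an ISG54/5×ISRE firefly luciferase IRF reporter, with TMEM173 knock-in H71R A230G Q293R (R232 variant), and there was no PMA pre-activation. Compounds were tested at 8 points, 2-fold, in duplicate from 150 µM. Cell Titer Glo was applied after supernatant removal.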

[4] = molecular target: T4, hSTING-R232 (Homo sapiens, UniProt Q86WV6, H232R); test: STING Differential Scanning Fluorimetry (DSF) assay, human; assay type: binding; conditions: human STING R232-WT, 5 μM protein
T4 construct: recombinant mouse or human STING protein (aa140-379); 6xHis-SUMO elsewhere) (cleaved yes); made in house
T4 sequence (Q86WV6 140-379 H232R): as the sequence (Q86WV6 140-379 H232R) above
Procedure, shortened: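 Purified STING C-terminal domain (aa140-379, R232), human or mouse, at 5 μM in 100 mM NaCl, 30 mM HEPES pH 7.5 with SYBR Orange, was heated at 0.5° C./min. Tm came from dF/dT; ΔTm and FC50 were derived from an 11-point 2-fold series from 300 μM, in duplicate.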

[5] = molecular target: T5, mSTING-R232 (aa139-378) (Mus musculus, UniProt Q3TBT3); test: STING Differential Scanning Fluorimetry (DSF) assay, mouse; assay type: binding; conditions: 5 μM protein
T5 construct: mSTING-R232 (aa139-378); 6xHis-SUMO; made in house
T5 sequence (Q3TBT3 139-378): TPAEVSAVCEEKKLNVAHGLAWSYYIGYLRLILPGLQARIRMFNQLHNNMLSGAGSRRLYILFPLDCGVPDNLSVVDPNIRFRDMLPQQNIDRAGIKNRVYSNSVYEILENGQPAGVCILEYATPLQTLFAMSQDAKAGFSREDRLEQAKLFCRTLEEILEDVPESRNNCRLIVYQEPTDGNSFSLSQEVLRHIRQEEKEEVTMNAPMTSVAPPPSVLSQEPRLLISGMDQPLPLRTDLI
Procedure: A STING DSF assay was performed to determine protein thermostability shift in response to small molecule ligand binding. A STING thermostability shift assay based on differential scanning fluorimetry was used to measure (1) the net shift in melting temperature (ΔTm)between the apo and ligand-bound states of the STING protein and (2) the concentration of the thermal denaturation transition (FC50) as a surrogate measure of binding affinity (Kd). Briefly, recombinant mouse or human STING protein (aa140-379) comprising the C-terminal binding domain (R232-WT) were purified by affinity chromatography and further processed to remove the purification tag, followed by gel filtration to achieve purity >95%. Protein in assay buffer was transferred to a 384 well plate and incubated with the hydrophobic fluorescent dye SYBR Orange. A temperature ramp was applied to the plate and the resulting dye fluorescence was plotted as a function of temperature. The first derivative of this function (dF/dT) was then used to extrapolate the melting temperature of the protein at various concentrations of compound and determine the thermal denaturation profile of a protein/compound complex.
2. 5 μM purified Target STING Protein
4. Buffer: 100 mM NaCl, 30 mM HEPES, pH 7.5
5. Thermal Ramp: 0.5° C./min
7. 11 point, 2 fold dilution, duplicate, 300 μM high concentrations

| IC50 [1] [µM] | IC50 [2] [µM] | Emax [3] [%] | WT_DSF_hSWAT Tm Shift (° C.) [4] | MOUSE DSF_6xHIS-SUMO Tm Shift (° C.) [5] | SMILES |
| --- | --- | --- | --- | --- | --- |
| 100 to 300 | 100 to 300 | > 50 | C (“C” = 2-7° C.) | C (“C” = 5-15° C.) | CCOc1c(Cl)ccc2c(=O)c3ccc(C)nc3n(CC(=O)O)c12 [Compound 2] |
| 20 to 100 | 20 to 100 | > 50 | D (“D” > 7° C.) | C (“C” = 5-15° C.) | CCOc1c(Cl)ccc2c(=O)c3ccc(C(C)C)nc3n(CC(=O)O)c12 [Compound 3] |

Reference: patent publication US20220251079A1, “BENZO[B][1,8]NAPHTHYRIDINE ACETIC ACID DERIVATIVES AND METHODS OF USE” (STINGTHERA, INC., priority 2019, published 2022)
